Results published in ChEMBL document CHEMBL5576047, “Synthesis of a new 2-prenylated quinoline as potential drug for metabolic syndrome with pan-PPAR activity and anti-inflammatory effects” (Bioorg Med Chem Lett, 2024).

Tests used:
Format in all cases: cell-based
[1] = biological target: T1, Peroxisome proliferator-activated receptor alpha (Homo sapiens, UniProt Q07869); assay: Agonist activity at GAL4-tagged human PPARalpha transfected in African green monkey COS7 cells assessed as transcriptional activation by measuring effective concentration incubated for 24 hrs by luciferase assay
T1 sequence (Q07869 whole entry): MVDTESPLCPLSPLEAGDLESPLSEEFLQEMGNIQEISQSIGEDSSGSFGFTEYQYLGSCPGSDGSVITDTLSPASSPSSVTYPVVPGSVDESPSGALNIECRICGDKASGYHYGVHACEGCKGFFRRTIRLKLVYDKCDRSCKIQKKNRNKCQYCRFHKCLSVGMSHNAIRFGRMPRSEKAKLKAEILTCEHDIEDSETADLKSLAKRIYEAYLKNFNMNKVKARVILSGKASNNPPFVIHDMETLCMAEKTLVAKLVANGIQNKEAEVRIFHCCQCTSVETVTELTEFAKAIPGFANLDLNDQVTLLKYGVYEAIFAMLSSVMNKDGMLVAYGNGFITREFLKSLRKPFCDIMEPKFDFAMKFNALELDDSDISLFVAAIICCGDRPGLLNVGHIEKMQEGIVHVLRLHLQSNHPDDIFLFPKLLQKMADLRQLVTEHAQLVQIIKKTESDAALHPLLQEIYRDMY

[2] = biological target: T2, Peroxisome proliferator-activated receptor gamma (Homo sapiens, UniProt P37231); assay: Agonist activity at GAL4-tagged human PPARgamma transfected in African green monkey COS7 cells assessed as transcriptional activation by measuring effective concentration incubated for 24 hrs by luciferase assay
T2 sequence (P37231 whole entry): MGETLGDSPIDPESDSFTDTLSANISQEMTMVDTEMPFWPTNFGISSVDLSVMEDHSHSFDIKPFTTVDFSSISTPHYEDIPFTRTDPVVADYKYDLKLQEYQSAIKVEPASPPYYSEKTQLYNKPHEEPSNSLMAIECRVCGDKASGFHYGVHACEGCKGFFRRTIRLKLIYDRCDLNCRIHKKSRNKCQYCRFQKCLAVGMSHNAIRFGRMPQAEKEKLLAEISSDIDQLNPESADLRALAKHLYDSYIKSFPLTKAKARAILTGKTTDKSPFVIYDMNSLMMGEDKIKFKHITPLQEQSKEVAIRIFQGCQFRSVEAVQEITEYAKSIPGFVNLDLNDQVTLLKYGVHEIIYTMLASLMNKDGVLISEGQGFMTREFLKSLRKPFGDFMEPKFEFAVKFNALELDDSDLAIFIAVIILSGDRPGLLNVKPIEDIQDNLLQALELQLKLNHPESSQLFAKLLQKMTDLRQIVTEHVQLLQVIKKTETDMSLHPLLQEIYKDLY

[3] = biological target: T3, Peroxisome proliferator-activated receptor delta (Homo sapiens, UniProt Q03181); assay: Agonist activity at GAL4-tagged human PPARbeta/delta transfected in African green monkey COS7 cells assessed as transcriptional activation by measuring effective concentration incubated for 24 hrs by luciferase assay
T3 sequence (Q03181 whole entry): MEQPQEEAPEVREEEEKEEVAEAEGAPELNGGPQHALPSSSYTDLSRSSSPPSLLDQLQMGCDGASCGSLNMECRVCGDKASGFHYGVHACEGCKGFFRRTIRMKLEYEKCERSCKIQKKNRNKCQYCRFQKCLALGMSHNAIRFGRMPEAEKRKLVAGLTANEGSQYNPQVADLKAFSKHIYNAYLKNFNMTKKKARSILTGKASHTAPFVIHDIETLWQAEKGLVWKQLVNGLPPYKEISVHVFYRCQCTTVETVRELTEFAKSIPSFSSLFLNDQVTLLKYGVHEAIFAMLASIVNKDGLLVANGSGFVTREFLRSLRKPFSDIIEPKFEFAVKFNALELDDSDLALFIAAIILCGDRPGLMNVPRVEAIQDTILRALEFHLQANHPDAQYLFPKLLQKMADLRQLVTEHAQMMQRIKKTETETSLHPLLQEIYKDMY

| SMILES | EC50 ([1]; cos7) | EC50 ([2]; cos7) | EC50 ([1]; read-out: EC50) [µM] | further results |
| --- | --- | --- | --- | --- |
| CCOC(=O)/C(=C/CCC1(C)CCc2cc(OCc3ccccc3)ccc2O1)OCC(F)(F)F (centres undefined) | Not Active | Not Active | – | – |
| CCOC(=O)CC/C(C)=C/CCC1(C)CCc2cc(OCc3ccccc3)ccc2O1 (centres undefined) | – | – | 2.95 | EC50 ([2]; read-out: EC50): 1590 nM |
| CCOC(=O)CC/C(C)=C/CCc1ccc2cc(OCc3ccccc3)ccc2n1 | – | – | 3.2 | EC50 [3]: 1510 nM |
| Cc1cc(SCc2sc(-c3ccc(C(F)(F)F)cc3)nc2C)ccc1OCC(=O)O [GW501516] | Not Active | – | – | – |
| Cc1cccc(Nc2cc(Cl)nc(SCC(=O)O)n2)c1C [PIRINIXIC ACID] | – | Not Active | – | – |
| CN(CCOc1ccc(CC2SC(=O)NC2=O)cc1)c1ccccn1 (centres undefined) [ROSIGLITAZONE] | Not Active | – | – | – |
